Patent publication US20260327628A1, “AN RNA APTAMER THAT BINDS TO ASP7967 OR AN ANALOGUE THEREOF” (priority 2022, published 2026)

What was measured:
cpAC17-4 RNA aptamer = assay: Affinity measurement by SPR, cpAC17-4 immobilized chip; assay type: binding; conditions: cpAC17-4 with 3′ poly(A) tail
Experimental: Affinity measurements of the aptamers with the ligands by SPR were performed as described by Chang et al.^53 with some modifications. Experiments were performed on Biacore T200 (Cytiva) at 25° C. For immobilization of the capture DNA (5′-/5AmMC6/[…]-3′ (SEQ ID NO: 32),/5AmMC6/: 5′ amino modifier C6, IDT), 1×HBS-N (10 mM HEPES, pH 7.4, 150 mM NaCl) was used as the running buffer. CM5 chip surface was washed by two injections of NaOH/NaCl solution (25 mM NaOH, 1 M NaCl) at 20 μl min^−1 for 30 s. […]
The dsDNA templates for in vitro transcription of the aptamers were prepared by primer extension of two oligo DNAs using Q5 High-Fidelity DNA Polymerase (NEB). […] RNA concentrations were determined by absorbance at 260 nm according to OligoCalc^54. […] An aptamer ligand was injected at 30 μl min^−1 for 120 s to monitor association, and then the dissociation kinetics was monitored for 180 s in the SPR running buffer. […] The raw data were analysed by Biacore T200 Evaluation Software 1.0 using 1:1 Langmuir interaction model. […] Dissociation constant (KD) was determined from the ratio of the association and the dissociation rate constants (KD=koff/kon) or by equilibrium analysis. […]

AC17-4 RNA aptamer = assay: Affinity measurement by ITC, AC17-4; assay type: binding; conditions: 37 °C
Experimental: ITC experiments were carried out as described previously^26 with some modifications. Template DNA for in vitro transcription was prepared by primer extension using Q5 High-Fidelity DNA Polymerase. AC17-4 RNA aptamer (5′-[…]-3′ (SEQ ID NO: 50)) was prepared using HiScribe T7 High Yield RNA Synthesis Kit (NEB) according to the manufacturer's instructions. The transcription product (100 μl) was treated with 2 U TURBO DNase at 37° C. for 30 min. The RNA was precipitated with ammonium acetate and ethanol and dissolved in water. The solution was further extracted with phenol-chloroform and ethanol precipitated. The RNA was purified by denaturing polyacrylamide gel electrophoresis (PAGE) and the main band was extracted from the gel with TE buffer (10 mM Tris-HCl, pH 7.0, 0.1 mM EDTA). […] RNA concentration was determined by absorbance at 260 nm according to OligoCalc. […]
Titration was performed at 37° C. using MicroCal PEAQ-ITC (Malvern). […] Raw data were analysed by MicroCal PEAQ-ITC analysis software ver. […]
Conventional SELEX requires immobilization of the target molecule on solid phase on which an RNA pool containing randomized sequences are applied. […] The sequences enriched during the SELEX experiment were analyzed by high-throughput (Illumina) sequencing. […]

Which results are given for `Fc1ccc(Nc2nc(NCc3ncccn3)nc(Nc3ccccc3)n2)cc1` [ASP2905, reference compound]?
Kd (cpAC17-4 RNA aptamer): 30 nM; Kd (AC17-4 RNA aptamer): 48 nM
